# Literature values as cited in patent publication US20020146694A1, “Functionating genomes with cross-species coregulation” (priority 2001, published 2002).
# Test system: wild type yeast cells
# Conditions: 10 micrograms/ml
smiles,measurement,value
C[C@H]1c2cccc(O)c2C(=O)C2=C(O)[C@]3(O)C(=O)C(C(N)=O)=C(O)[C@@H](N(C)C)[C@@H]3[C@@H](O)[C@@H]21 [doxycycline],effect on the growth rate,no significant effect
